In patent US5332734A, “Oxazinone derivative” (Japan Tobacco, Incorporated, priority 1991, dated 1994):

Tests used:
[1] = target: T1, human leukocyte elastase (HLE) (Homo sapiens, UniProt P08246); test: HLE inhibitory activity; assay type: biochemical; details: HLE 5.63 nM, substrate 0.2625 mM, pH 8.6, 37° C.
T1 construct: applying a density gradient centrifugal operation so as to obtain neutrophils; from tissue; host or cells: neutrophils from human venous blood
T1 sequence (P08246 30-267): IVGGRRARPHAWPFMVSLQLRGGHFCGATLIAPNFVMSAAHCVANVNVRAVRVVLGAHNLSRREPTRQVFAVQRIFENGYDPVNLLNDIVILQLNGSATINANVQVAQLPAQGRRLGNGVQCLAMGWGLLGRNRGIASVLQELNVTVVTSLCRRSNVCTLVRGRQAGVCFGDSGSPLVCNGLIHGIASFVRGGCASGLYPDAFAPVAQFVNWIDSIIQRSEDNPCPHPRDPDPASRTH
Experimental: (§1) Inhibotory activities of the oxadinone derivative of the present invention against human leukocyte elastase (HLE), human sputum elastase (HSE), human cathepsin G (HCG), bovine pancreatic α-chymotrypsin (CYT) and bovine pancreatic trypsin (TRY) were measured as follows:
(1) Measurement of HLE Inhibitory Activity
A buffy coat was obtained by subjecting human vein blood to centrifugal separation, followed by adding distilled water to the buffy coat thus obtained for performing a low tension treatment so as to collapse erythrocytes. A mixture consisting of 10 parts of a 33.4% Conrey 400 solution and 24 parts of 9% of Ficoll solution was added to the residual blood cell component, followed by applying a density gradient centrifugal operation so as to obtain neutrophils. The neutrophil fraction was washed three times with Hanks' buffer so as to recover cells, which were frozen at -80° C. for preservation until the cells were used. The cells preserved under a frozen state were thawed with warm water of 37° C. and suspended in the lysis buffer (0.1M Tris-HCl pH 7.5, 1M MgCl2, 0.1% Brij 35), the amount of the buffer being 9 times as much as that of the cells. Then, the suspended cells were collapsed with polotron while cooling the suspension with ice. Then, the suspension was subjected to a centrifugal separation at 100,000×g for one hour so as to remove the precipitate. Also, a buffer (5 mM Tris-HCl pH 7.5, 1M NaCl, 1.1% Brij 35) was added to the supernatant in an amount twice as much as the supernatant so as to prepare a crude solution of an enzyme extract. The crude solution of an enzyme extract was adsorbed on an aprotinin affinity column. Further, the active fraction eluted with a 50 ml glycine-HCl solution (pH 3.3, 1M NaCl, 0.1% Brij 35) was passed through a MONO S ion-exchange chromatography. The active fraction eluted with a 2M NaCl linear gradient was dialyzed and, then, subjected to a freeze-drying so as to prepare an enzyme sample.
A test compound to be detected was dissolved in DMSO (for fluorometry) so as to prepare solutions of various concentrations. Then, the solution of 0.2M Tris-HCl (pH 9.6) was added to each of the solutions in an amount twice as much as the solution so as to prepare a test solution. On the other hand, a synthetic substrate (MeOSuc-Ala-Pro-Val-pNA; FUNAKOSHI) was dissolved in DMSO, followed by adding 0.2M tris-HCl solution (pH 8.6) to the solution in an amount twice as much as the solution so as to prepare a substrate solution.
A microplate (NUNK) provided with 96 wells was used for the reaction. The reaction was repeatedly carried out 6 times for each concentration of the test compound. Each of 140 μl of the enzyme solution (0.2M Tris-HCl, pH 8.6), 30 μl of the test material solution and 30 μl of the substrate solution was pre-incubated for 10 minutes at 37° C. for each well of the microplate. After incubation of a mixture of the enzyme solution and the test material solution for 10 minutes, the substrate solution was added so as to carry out the enzyme reaction. For determining the substrate decomposition, the absorbance (405 run) of the released pNA was measured by a microplate reader (MTP-100; CORONA), and the substrate decomposition was calculated on the basis of the average value of the absorbances repeatedly measured 6 times. The inhibitory concentration of the test compound relative to the decomposition amount of the substrate in the case where the test compound was not added was obtained as IC50 value.

[2] = system: neutrophil infiltration into carrageenin-induced air pouch inflammation; test: Suppressing neutrophil infiltration into carrageenin-induced air pouch inflammation; assay type: in vivo, SD series male rats; details: 17 μmol into air pouch, 5 hours; for Cell Infiltration Capability: control = 100
Experimental: Test: 3 Effect of the Invented Compound for Suppressing Neutrophil Infiltration into carrageenin-induced Air Pouch Inflammation
Groups of SD series male rats (5 five weeks old and each weighing 110 to 130 g) were used in this experiment, each group consisting of five rats. In the first step, an air bladder was formed on the back of the rat by hypodermic injection of 8 ml of air while anesthetizing the rat with either. Twenty-four hours later, 5 ml of a physiological saline containing 1% of carrageenin manufactured by Wako K.K. was injected into the air pouch. Promptly after the carrageenin injection, a solution prepared by dissolving the test material (compound of the present invention) in 200 μl of DMSO (dimethylsulfoxide) was administered to the air pouch on the back of the rat.
Five hours later, the rat was killed and the blood was released therefrom. Then, 5 ml of PBS containing 10 mM of EDTA (ethylenediamine tetraacetate) was injected into the air pouch. The exudate within the air bladder was washed and, then, recovered. A predetermined amount of the recovered exudate was measured by a colter counter so as to count the number of infiltrated cells.
The effect of the test material for suppressing the cell infiltration into the carrageenin induced inflammation was determined by the formula given below, in which the value obtained by subtracting the number of infiltrated cells in the experiment in which carrageenin was not administered from the number of infiltrated cells in the reference group in which a medicine was not administered was set at 100:
= 100 - (U - V)/(W - V) × 100
S: Cell infiltration capability in the case of containing the compound of the present invention;
T: Cell infiltration capability in the case of not containing the compound of the present invention;
U: The number of infiltrated cells in the case of administering the compound of the present invention and carrageenin;
V: The number of infiltrated cells in the case of not adding carrageenin; and
W: The number of infiltrated cells in the case of administering carrageenin only.

[3] = target: T2, bovine pancreatic α-chymotrypsin (CYT) (Bos taurus, UniProt P00766); test: CYT inhibitory activity; assay type: biochemical; details: CYT 3.4 nM, substrate 0.273 mM, pH 8.0
T2 construct: purchased Sigma Inc; host or cells: bovine pancreas (by its name)
Experimental: as §1
(4) Measurement of CYT Inhibitory Activity
a) Enzyme Preparing Method Bought from Sigma Inc.
Employed was a measuring method similar to that described previously in conjunction with the measurement of the HLE inhibiting activity, except that used was a buffer solution of pH 8.0. The final concentrations of CYT and the synthetic substrate (Ac-Ala-Ala-Pro-Phe-pNA; FUNAKOSHI) in the solution of the enzyme reaction were 3.4 nM and 0.273 mM, respectively.

Row | IC50 [1] | IC50 [3] | Compound | Rate (%) of Suppressing Cell Infiltration [2] | Cell Infiltration Capability [2]
1 | 240 nM | 4.75 µM | Cc1cccc2nc([C@@H](NC(=O)OCC3c4ccccc4-c4ccccc43)C(C)C)oc(=O)c12 [Compound 1, 2-{1(S)-[(9-fluorenylmethoxycarbonyl)amino]-2-methylpropyl}-5-methyl-4H-3,1-benzoxazin-4-one] | 38% | 62
2 | 730 nM | 4.46 µM | Cc1cccc2nc([C@H](CC(C)C)NC(=O)OCC3c4ccccc4-c4ccccc43)oc(=O)c12 [Compound 2, 2-{1(S)-[(9-fluorenylmethoxycarbonyl)amino]-3-methylbutyl}-5-methyl-4H-3,1-benzoxazin-4-one] | 24% | 76
